Results from ChEMBL document CHEMBL5154653, “The discovery of 1, 3-diamino-7H-pyrrol[3, 2-f]quinazoline compounds as potent antimicrobial antifolates” (Eur J Med Chem, 2022).
Activity calls are given as the source filed them. The rule behind the calls is not given here.

Columns and labels:
Escherichia coli [1] = assay: Inhibition of Escherichia coli C-terminal hexahistidine tagged DHFR at 5 uM incubated for 5 mins in presence of NADPH by measuring oxidation of NADPH to NADP+
Escherichia coli [2] = assay: Antibacterial activity against Escherichia coli ATCC 25922 assessed as reduction in microbial growth after 16 to 18 hrs by microbroth dilution method; assay type: functional; conditions: time 16-18 hrs
Klebsiella pneumoniae [3] = assay: Antibacterial activity against Klebsiella pneumoniae ATCC 700603 assessed as reduction in microbial growth after 16 to 18 hrs by microbroth dilution method; assay type: functional; conditions: time 16-18 hrs
Acinetobacter baumannii [4] = assay: Antibacterial activity against Acinetobacter baumannii ATCC 19606 assessed as reduction in microbial growth after 16 to 18 hrs by microbroth dilution method; assay type: functional; conditions: time 16-18 hrs
Klebsiella pneumoniae [5] = assay: Antibacterial activity against ESBL-producing Klebsiella pneumoniae CCPM(A)-081514 assessed as reduction in microbial growth after 16 to 18 hrs by microbroth dilution method; assay type: functional; conditions: time 16-18 hrs
[6] = Inhibition of Escherichia coli C-terminal hexahistidine tagged DHFR incubated for 5 mins in presence of NADPH by measuring oxidation of NADPH to NADP+
Escherichia coli [7] = assay: Binding affinity to Escherichia coli C-terminal hexahistidine tagged DHFR assessed as change in enthalpy at 0.2 mM by isothermal titration calorimetry method
Escherichia coli [8] = assay: Binding affinity to Escherichia coli C-terminal hexahistidine tagged DHFR assessed as change in entropy at 0.2 mM by isothermal titration calorimetry method
[9] = Binding affinity to Escherichia coli C-terminal hexahistidine tagged DHFR assessed as dissociation constant by isothermal titration calorimetry method
Escherichia coli [10] = assay: Binding affinity to Escherichia coli C-terminal hexahistidine tagged DHFR assessed as change in gibbs free energy at 0.2 mM by isothermal titration calorimetry method
Acinetobacter baumannii [11] = assay: Antibacterial activity against multi drug resistant Acinetobacter baumannii CCPM(A)-100902 assessed as reduction in microbial growth after 16 to 18 hrs by microbroth dilution method; assay type: functional; conditions: time 16-18 hrs
Acinetobacter baumannii [12] = assay: Antibacterial activity against multi drug resistant Acinetobacter baumannii CCPM(A)-100903 assessed as reduction in microbial growth after 16 to 18 hrs by microbroth dilution method; assay type: functional; conditions: time 16-18 hrs
Acinetobacter baumannii [13] = assay: Antibacterial activity against multi drug resistant Acinetobacter baumannii CCPM(A)-1100708 assessed as reduction in microbial growth after 16 to 18 hrs by microbroth dilution method; assay type: functional; conditions: time 16-18 hrs
Acinetobacter baumannii [14] = assay: Antibacterial activity against Acinetobacter baumannii CCPM(A)-100946 assessed as reduction in microbial growth after 16 to 18 hrs by microbroth dilution method; assay type: functional; conditions: time 16-18 hrs
Acinetobacter baumannii [15] = assay: Antibacterial activity against Acinetobacter baumannii CCPM(A)-100947 assessed as reduction in microbial growth after 16 to 18 hrs by microbroth dilution method; assay type: functional; conditions: time 16-18 hrs
Klebsiella pneumoniae [16] = assay: Antibacterial activity against ESBL-producing Klebsiella pneumoniae CCPM(A)-081568 assessed as reduction in microbial growth after 16 to 18 hrs by microbroth dilution method; assay type: functional; conditions: time 16-18 hrs
Klebsiella pneumoniae [17] = assay: Antibacterial activity against Klebsiella pneumoniae CCPM(A)-081018 assessed as reduction in microbial growth after 16 to 18 hrs by microbroth dilution method; assay type: functional; conditions: time 16-18 hrs
Escherichia coli [18] = assay: Antibacterial activity against Escherichia coli CCPM(A)-0715118 assessed as reduction in microbial growth after 16 to 18 hrs by microbroth dilution method; assay type: functional; conditions: time 16-18 hrs
Escherichia coli [19] = assay: Antibacterial activity against ESBL-producing Escherichia coli CCPM(A)-071030 assessed as reduction in microbial growth after 16 to 18 hrs by microbroth dilution method; assay type: functional; conditions: time 16-18 hrs
Escherichia coli [20] = assay: Antibacterial activity against ESBL-producing Escherichia coli CCPM(A)-0715117 assessed as reduction in microbial growth after 16 to 18 hrs by microbroth dilution method; assay type: functional; conditions: time 16-18 hrs
Escherichia coli [21] = assay: Antibacterial activity against ESBL-producing Escherichia coli CCPM(A)-0715142 assessed as reduction in microbial growth after 16 to 18 hrs by microbroth dilution method; assay type: functional; conditions: time 16-18 hrs
Staphylococcus aureus [22] = assay: Antibacterial activity against Staphylococcus aureus ATCC 29213 assessed as reduction in microbial growth after 16 to 18 hrs by microbroth dilution method; assay type: functional; conditions: time 16-18 hrs
Staphylococcus aureus [23] = assay: Antibacterial activity against methicillin-resistant Staphylococcus aureus ATCC 43300 assessed as reduction in microbial growth after 16 to 18 hrs by microbroth dilution method; assay type: functional; conditions: time 16-18 hrs
Enterococcus faecium = assay: Antibacterial activity against vancomycin-resistant Enterococcus faecium ATCC 51559 assessed as reduction in microbial growth after 16 to 18 hrs by microbroth dilution method; assay type: functional; conditions: time 16-18 hrs
Escherichia coli [24] = assay: Antibacterial activity against Escherichia coli ATCC 25922 overexpressing DHFR assessed as reduction in microbial growth after 16 to 18 hrs by microbroth dilution method; assay type: functional; conditions: time 16-18 hrs
Thymidylate synthase = Thymidylate synthase (Escherichia coli K-12, UniProt P0A884); assay: Inhibition of Escherichia coli N-terminal hexahstidine-tagged TS by steady-state kinetic analysis
[25] = target: Thymidylate synthase (Escherichia coli K-12) (UniProt P0A884); assay: Binding affinity to Escherichia coli […] hexahistidine-tagged TS at 20 uM by biolayer interferometry assay
Klebsiella pneumoniae [26] = assay: Antibacterial activity against ESBL-producing Klebsiella pneumoniae ATCC 700603 assessed as reduction in microbial growth after 16 to 18 hrs by microbroth dilution method; assay type: functional; conditions: time 16-18 hrs
Escherichia coli [27] = assay: Antibacterial activity against Escherichia coli ATCC 25922 assessed as blockage of folate pathway after 16 to 18 hrs in presence of thymine by microbroth dilution method; assay type: functional; conditions: time 16-18 hrs
Escherichia coli [28] = assay: Antibacterial activity against Escherichia coli ATCC 25922 assessed as blockage of folate pathway after 16 to 18 hrs in presence of thymine by measuring fold increase in MIC by microbroth dilution method; assay type: functional; conditions: time 16-18 hrs
[29] = target: Thymidylate synthase (Escherichia coli K-12) (UniProt P0A884); assay: Inhibition of Escherichia coli N-terminal hexahstidine-tagged TS at 500 uM by steady-state kinetic analysis

Sequence of Thymidylate synthase (Escherichia coli K-12) (P0A884 whole entry, looked up): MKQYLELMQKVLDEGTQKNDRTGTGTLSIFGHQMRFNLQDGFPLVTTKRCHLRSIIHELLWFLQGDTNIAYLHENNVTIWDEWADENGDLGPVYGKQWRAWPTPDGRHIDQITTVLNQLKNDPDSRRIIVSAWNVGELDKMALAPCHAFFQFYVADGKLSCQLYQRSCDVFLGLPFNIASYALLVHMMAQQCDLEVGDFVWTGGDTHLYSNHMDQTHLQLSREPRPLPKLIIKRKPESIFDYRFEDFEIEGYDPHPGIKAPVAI
Sequence of Thymidylate synthase (P0A884 whole entry): as the sequence (P0A884 whole entry, looked up) above

CCn1ccc2c3c(N)nc(N)nc3ccc21 showed an inhibition (Escherichia coli [1]) of 21.6%, an MIC (Escherichia coli [2]) of 0.25 µg/mL and an MIC (Klebsiella pneumoniae [3]) of 1 µg/mL. It also gave an MIC (Acinetobacter baumannii [4]) of 8 µg/mL.

In the case of Nc1nc(N)c2c(ccc3c2ccn3Cc2ccc(F)cc2)n1, the inhibition (Escherichia coli [1]) is reported as 78.9%, the MIC (Escherichia coli [2]) is reported as 0.002 µg/mL and the MIC (Klebsiella pneumoniae [3]) is reported as 0.25 µg/mL. It also gave an MIC (Acinetobacter baumannii [4]) of 0.06 µg/mL.

With Cc1cc(NS(=O)(=O)c2ccc(N)cc2)no1 [SULFAMETHOXAZOLE] the MIC (Escherichia coli [2]) was 256 µg/mL and the MIC (Klebsiella pneumoniae [5]) was 2050 µg/mL.

With Nc1nc(N)c2c(ccc3c2ccn3Cc2ccc(C(=O)N3CCOCC3)cc2)n1 the inhibition (Escherichia coli [1]) was 80.3%, the MIC (Escherichia coli [2]) was 8 µg/mL and the MIC (Klebsiella pneumoniae [3]) was 32 µg/mL. The MIC (Acinetobacter baumannii [4]) was 128 µg/mL.

In the case of Nc1nc(N)c2c(ccc3c2ccn3Cc2cccc(F)c2)n1, the inhibition (Escherichia coli [1]) is reported as 61%, the MIC (Escherichia coli [2]) is reported as 0.002 µg/mL and the MIC (Klebsiella pneumoniae [3]) is reported as 0.25 µg/mL. The MIC (Acinetobacter baumannii [4]) was 0.125 µg/mL, the IC50 [6] was 98.4 nM and the deltaH (Escherichia coli [7]) was -23300 cal/mol. The deltaS (Escherichia coli [8]) was -45.8 cal/mol/deg, the Kd [9] was 75.2 nM and the deltaG (Escherichia coli [10]) was -9710 cal/mol. For the same compound, the MIC (Acinetobacter baumannii [11]) was 0.0125 µg/mL, the MIC (Acinetobacter baumannii [12]) was 4 µg/mL and the MIC (Acinetobacter baumannii [13]) was 4 µg/mL. It also gave an MIC (Acinetobacter baumannii [14]) of 0.25 µg/mL, an MIC (Acinetobacter baumannii [15]) of 0.125 µg/mL and an MIC (Klebsiella pneumoniae [5]) of 0.5 µg/mL. It also gave an MIC (Klebsiella pneumoniae [16]) of 2 ng/mL, an MIC (Klebsiella pneumoniae [17]) of 16 µg/mL and an MIC (Escherichia coli [18]) of 16 µg/mL. It also gave an MIC (Escherichia coli [19]) of 2 ng/mL, an MIC (Escherichia coli [20]) of 2 ng/mL and an MIC (Escherichia coli [21]) of 2 ng/mL. The MIC (Staphylococcus aureus [22]) was 0.125 µg/mL, the MIC (Staphylococcus aureus [23]) was 0.06 µg/mL and the MIC (Enterococcus faecium) was 0.125 µg/mL. For the same compound, the MIC (Escherichia coli [24]) was 8 µg/mL, the IC50 (Thymidylate synthase) was 18.6 µM and the Activity [25] was “Active”. The MIC (Klebsiella pneumoniae [26]) was at most 0.25 µg/mL, the MIC (Escherichia coli [27]) was 8 µg/mL and the “fold change (FC)” value (Escherichia coli [28]) was 4000. It also gave an inhibition [29] of 50%.

Nc1nc(N)c2c(ccc3c2ccn3Cc2cccc(C(=O)N3CCOCC3)c2)n1 gave an inhibition (Escherichia coli [1]) of 100%, an MIC (Escherichia coli [2]) of 16 µg/mL and an MIC (Klebsiella pneumoniae [3]) of 128 µg/mL. For the same compound, the MIC (Acinetobacter baumannii [4]) was 512 µg/mL.
